# Reference: patent US4068074A, “Cephalosporin derivatives having at the 3-position of the cephem ring a heterocyclic thiomethyl group with a carboxy or sulfo group and at the 7-position of the cephem ring an α-heterocylic acylaminophenyl-acetamide group” (priority 1974, dated 1978)
# Experiments:
# [1] = tested on: Proteus vulgaris 0X 19US; experiment: MIC against bacteria (Table I), strain (2); format: cell-based; conditions: Proteus vulgaris, 0X19US
# From the text: (§1) Now, for illustrating the excellent pharmacological effects of the compounds of this invention, the values of MIC (γ/ml.) of the compounds against various bacteria are shown in Table 1, in which the compounds of this invention used are shown by example numbers.
# (2) Proteus vulgaris 0X 19US
# [2] = tested on: Pseudomonas aeruginosa ATCC 8689; experiment: MIC against bacteria (Table I), strain (4); format: cell-based; conditions: Pseudomonas aeruginosa, ATCC8689
# From the text: as §1
# (4) Pseudomonas aeruginosa ATCC 8689
# [3] = tested on: Pseudomonas aeruginosa 99 (Gentamycin resistant); experiment: MIC against bacteria (Table I), strain (5); format: cell-based; conditions: Pseudomonas aeruginosa
# From the text: as §1
# (5) Pseudomonas aeruginosa 99 (Gentamycin resistant)
# [4] = tested on: Escherichia coli kauffmann 0-1; experiment: MIC against bacteria (Table I), strain (7); format: cell-based; conditions: Escherichia coli
# From the text: as §1
# (7) Escherichia coli kauffmann 0-1
# [5] = tested on: Klebsiella pneumoniae ATCC 10031; experiment: MIC against bacteria (Table I), strain (8); format: cell-based; conditions: Klebsiella pneumoniae, ATCC10031
# From the text: as §1
# (8) Klebsiella pneumoniae ATCC 10031
# [6] = tested on: Salmonella typhi H901 W; experiment: MIC against bacteria (Table I), strain (9); format: cell-based; conditions: Salmonella enterica, TYPHI
# From the text: as §1
# (9) Salmonella typhi H901 W
# [7] = tested on: Salmonella enteritidis; experiment: MIC against bacteria (Table I), strain (10); format: cell-based; conditions: Salmonella enterica, ENTERITIDIS
# From the text: as §1
# (10) Salmonella enteritidis
# [8] = tested on: Shigella flexneri 2a 1675; experiment: MIC against bacteria (Table I), strain (11); format: cell-based; conditions: 2A1675; (11) Shigella flexneri 2a 1675; read-out: MIC
# From the text: as §1
# [9] = tested on: Shigella sonnei II 37148; experiment: MIC against bacteria (Table I), strain (12); format: cell-based; conditions: II37148; (12) Shigella sonnei II 37148; read-out: MIC
# From the text: as §1
# [10] = tested on: Bacillus subtilis ATCC 6633; experiment: MIC against bacteria (Table I), strain (14); format: cell-based; conditions: Bacillus subtilis, ATCC6633
# From the text: as §1
# (14) Bacillus subtilis ATCC 6633
# [11] = tested on: Staphylococcus aureus 209P; experiment: MIC against bacteria (Table I), strain (16); format: cell-based; conditions: Staphylococcus aureus, 209P
# From the text: as §1
# (16) Staphylococcus aureus 209P
# [12] = tested on: Staphylococcus Shimanishi; experiment: MIC against bacteria (Table I), strain (17); format: cell-based; conditions: Staphylococcus
# From the text: as §1
# (17) Staphylococcus Shimanishi
# [13] = tested on: Staphylococcus Onuma; experiment: MIC against bacteria (Table I), strain (18); format: cell-based; conditions: Staphylococcus
# From the text: as §1
# (18) Staphylococcus Onuma
# [14] = tested on: β-lactamase isolated from Pseudomonas aeruginosa 21; experiment: Resistance to β-lactamase: amount of unaltered test sample (Table 3); format: biochemical; conditions: initial concentration 100γ/ml
# From the text: For example, the relation between the amount (γ/ml) of an unaltered test sample at an initial concentration of the sample 100γ/ml against β-lactamase isolated from Pseudomonas aeruginosa 21 at various dilutions of the enzyme were investigated.
# [15] = Residual antibacterial activity after incubation with 90% plasma (Table 4); format: in vitro ADME, male Sprague-Dowley rat; conditions: 90% rat plasma
# Description: (§2) The relation between the reaction period of time and the antibacterial activity (residual activity, %) when these compounds are incubated with the plasma and the liver homogenate of a male Sprague-Dowley rat is shown in Table 4. The residual antibacterial activity was measured by a thin-layer cup method according to Bacillus subtilis ATCC 6633.
# A*Residual activity (%) when incubated with 90% plasma.
# [16] = Residual antibacterial activity after incubation with 10% liver homogenate (Table 4); format: in vitro ADME, male Sprague-Dowley rat; conditions: rat
# Description: as §2
# B*Residual activity (%) when incubated with 10% liver homogenate.
# [17] = format: in vitro ADME
# From the text: Still another advantage of the compounds of this invention is that they are not inactivated in the internal organs of the body. For example, when the compounds of this invention and cephalotin are each homogenized with internal organs, the compounds of this invention are not decomposed while cephalotin is decomposed.
compound,measurement,setting,value
"CC(=O)OCC1=C(C(=O)O)N2C(=O)[C@@H](NC(=O)Cc3cccs3)[C@H]2SC1 [Cephalotin, reference compound]",MIC,[1],12.5 µg/mL
same,MIC,[2],> 100 µg/mL
same,MIC,[3],> 100 µg/mL
same,MIC,[4],3.13 µg/mL
same,MIC,[5],0.78 µg/mL
same,MIC,[6],1.56 µg/mL
same,MIC,[7],0.39 µg/mL
same,MIC,[8],6.25 µg/mL
same,MIC,[9],6.25 µg/mL
same,MIC,[10],< 0.09 µg/mL
same,MIC,[11],0.19 µg/mL
same,MIC,[12],0.39 µg/mL
same,MIC,[13],0.39 µg/mL
same,Amount of unaltered test sample,[14]; β-lactamase dilution ×2,0 µg/mL
same,Amount of unaltered test sample,[14]; β-lactamase dilution ×4,0 µg/mL
same,Amount of unaltered test sample,[14]; β-lactamase dilution ×8,0 µg/mL
same,Amount of unaltered test sample,[14]; β-lactamase dilution ×16,0 µg/mL
same,Amount of unaltered test sample,[14]; β-lactamase dilution ×32,2.6 µg/mL
same,Amount of unaltered test sample,[14]; β-lactamase dilution ×64,11.8 µg/mL
same,Amount of unaltered test sample,[14]; β-lactamase dilution ×128,46.8 µg/mL
same,Amount of unaltered test sample,[14]; β-lactamase dilution ×256,81.6 µg/mL
same,Amount of unaltered test sample,[14]; β-lactamase dilution ×512,100 µg/mL
same,Amount of unaltered test sample,[14]; β-lactamase dilution ×1024,100 µg/mL
same,remaining at 0.25 h,"[15]; 90% plasma, 15 minute",87%
same,remaining at 0.5 h,"[15]; 90% plasma, 30 minute",66%
same,remaining at 1.5 h,"[15]; 90% plasma, 90 minute",36%
same,Residual activity,[15]; 0 minute,100%
same,Residual activity,[16]; 0 min,100%
same,remaining at 0.25 h,[16]; 10% liver homogenate,17.2%
same,remaining at 0.5 h,[16]; 10% liver homogenate,12.2%
same,remaining at 1.5 h,[16]; 10% liver homogenate,12.6%
same,Decomposition when homogenized with internal organs,[17],decomposed
